These compounds were tested against T1, sodium-proton exchanger of subtype 3 (NHE3) (Homo sapiens, UniProt P48764) (assay: Recovery of intracellular pH (pHi) after acidification in LAP1 cells stably expressing NHE3 (BCECF fluorescence, FLIPR)). Details: LAP1 cells stably expressing NHE3; pH recovery after acidification; range 1 is % inhibition at 10 μM; read-out: Activity range (inhibitory effect on NHE3).
T1 construct: expressed in transfected cells
T1 sequence (P48764 26-834): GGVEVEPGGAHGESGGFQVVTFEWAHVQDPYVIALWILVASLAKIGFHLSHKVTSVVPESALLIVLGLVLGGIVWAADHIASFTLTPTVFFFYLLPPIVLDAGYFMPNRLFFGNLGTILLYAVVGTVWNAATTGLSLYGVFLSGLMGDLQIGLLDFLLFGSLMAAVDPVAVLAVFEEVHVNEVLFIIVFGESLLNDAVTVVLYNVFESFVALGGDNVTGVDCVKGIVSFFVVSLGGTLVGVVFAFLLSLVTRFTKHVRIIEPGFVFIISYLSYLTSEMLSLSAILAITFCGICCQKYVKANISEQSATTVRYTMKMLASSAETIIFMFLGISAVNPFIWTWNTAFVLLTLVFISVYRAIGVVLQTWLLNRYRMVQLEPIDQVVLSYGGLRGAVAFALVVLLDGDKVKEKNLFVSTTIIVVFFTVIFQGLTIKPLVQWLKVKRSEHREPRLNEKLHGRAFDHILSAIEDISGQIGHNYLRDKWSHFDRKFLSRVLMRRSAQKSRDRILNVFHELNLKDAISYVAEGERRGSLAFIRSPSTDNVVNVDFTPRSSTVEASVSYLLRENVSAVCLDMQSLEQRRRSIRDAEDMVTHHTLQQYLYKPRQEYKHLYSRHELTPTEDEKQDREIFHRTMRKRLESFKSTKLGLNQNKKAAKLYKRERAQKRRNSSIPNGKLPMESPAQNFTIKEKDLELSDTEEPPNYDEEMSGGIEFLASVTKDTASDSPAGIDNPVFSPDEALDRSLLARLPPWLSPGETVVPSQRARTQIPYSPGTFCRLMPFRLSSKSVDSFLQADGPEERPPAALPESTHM
Assay type: cell-based

Row | IC50 | inhibition at 10 µM | SMILES
1 | 1 to 10 µM |  | N#Cc1ccc(O[C@@H]2c3ccccc3C[C@H]2N2CCC(N)C2)c(Cl)c1 (mixture of isomers) [Example 543, 4-[rac-trans-(1,2)-2-(3-aminopyrrolidin-1-yl)indan-1-yloxy]-3-chlorobenzonitrile]
2 | 1 to 10 µM |  | NC(=O)c1cccc(O[C@@H]2c3ccccc3C[C@H]2N2CCC[C@H](N)C2)c1 (racemic) [Example 413, 3-[rac-trans-(1,2)-2-((S)-3-aminopiperidin-1-yl)indan-1-yloxy]benzamide]
3 | < 1 µM |  | CN1C[C@@H]2CN([C@H]3Cc4c(Cl)cc(Cl)cc4[C@@H]3Oc3ccc(S(C)(=O)=O)cc3)C[C@@H]2C1 [Example 8, 2-[trans-(1S,2S)-4,6-dichloro-1-(4-methanesulfonylphenoxy)indan-2-yl]-5-methyloctahydropyrrolo[3,4-c]pyrrole]
4 | 1 to 10 µM |  | N#Cc1ccc(O[C@@H]2c3ccccc3C[C@H]2N2CCC(CN)CC2)c(Cl)c1 (racemic) [Example 547, 4-[rac-trans-(1,2)-2-(4-aminomethylpiperidin-1-yl)indan-1-yloxy]-3-chlorobenzonitrile]
5 |  | 20 to 50% | COC(=O)c1ccc(O[C@H]2c3ccccc3CC[C@@H]2N2CCC[C@H](N)C2)c(Cl)c1 (racemic) [Example 531, 4-[rac-trans-(1,2)-2-((S)-3-aminopiperidin-1-yl)-1,2,3,4-tetrahydronaphthalen-1-yloxy]-3-chlorobenzoic acid methyl ester]
6 | < 1 µM |  | FC(F)(F)CCN[C@@H]1CCCN([C@H]2Cc3c(Cl)cc(Cl)cc3[C@@H]2Oc2ccc(-n3cncn3)cc2)C1 [Example 221, {(R)-1-[trans-(1S,2S)-4,6-dichloro-1-(4-[1,2,4]triazol-1-ylphenoxy)indan-2-yl]piperidin-3-yl}-(3,3,3-trifluoropropyl)amine]
7 | 1 to 10 µM |  | NCC1CCN([C@@H]2Cc3ccccc3[C@H]2Oc2ccc(Br)cc2-c2cc[nH]n2)C1 (mixture of isomers) [Example 600, C-(1-{rac-trans-(1,2)-1-[4-bromo-2-(1H-pyrazol-3-yl)phenoxy]indan-2-yl}pyrrolidin-3-yl)methylamine]
8 | 1 to 10 µM |  | NCC1CCN([C@@H]2Cc3ccccc3[C@H]2Oc2cccc(N3CCNCC3)c2)C1 (mixture of isomers) [Example 617, C-{1-[rac-trans-(1,2)-1-(3-piperazin-1-ylphenoxy)indan-2-yl]pyrrolidin-3-yl}methylamine]
9 | < 1 µM |  | Cc1nnc(C)n1-c1ccc(O[C@H]2c3cc(Cl)ccc3C[C@@H]2N2CC[C@@H](O)C2)c(F)c1 [Example 143, (R)-1-{trans-(1S,2S)-6-chloro-1-[4-(3,5-dimethyl-[1,2,4]triazol-4-yl)-2-fluorophenoxy]indan-2-yl}pyrrolidin-3-ol]
10 |  | 20 to 50% | NS(=O)(=O)c1ccc(O[C@H]2c3ccccc3C[C@@H]2CN2CCCCC2)c(Cl)c1 (racemic) [Example 440, 3-chloro-4-(2-piperidin-1-ylmethylindan-1-yloxy)benzenesulfonamide]
11 |  | 20 to 50% | Fc1ccc(O[C@H]2c3cc(Cl)cc(Cl)c3C[C@@H]2N2CCC2)c2ncccc12 [Example 591, 8-((1S,2S)-2-azetidin-1-yl-4,6-dichloroindan-1-yloxy)-5-fluoroquinoline]
12 | 1 to 10 µM |  | Cc1nnc(C)n1-c1ccc(O[C@H]2c3c(Cl)sc(Cl)c3CC[C@@H]2N2CCCC2)cc1 (racemic) [Example 496, 4-[4-(1,3-dichloro-5-pyrrolidin-1-yl-4,5,6,7-tetrahydrobenzo[c]thiophen-4-yloxy)phenyl]-3,5-dimethyl-4H-[1,2,4]triazole]
13 | 1 to 10 µM |  | N[C@@H]1CCCN([C@H]2CCc3ccccc3[C@@H]2Oc2ccc(-n3ccnc3)cc2)C1 (racemic) [Example 71, (R)-1-[rac-trans-(1,2)-1-(4-imidazol-1-ylphenoxy)-1,2,3,4-tetrahydronaphthalen-2-yl]piperidin-3-ylamine]
14 | < 1 µM |  | O=C1CSC(=O)N1c1ccc(O[C@H]2c3cc(Cl)cc(Cl)c3C[C@@H]2N2CC[C@@H](O)C2)cc1 [Example 428, 3-{4-[(1S,2S)-4,6-dichloro-2-((R)-3-hydroxypyrrolidin-1-yl)indan-1-yloxy]phenyl}thiazolidine-2,4-dione]
15 | < 1 µM |  | C[C@@H]1CN([C@H]2Cc3c(Cl)cc(Cl)cc3[C@@H]2Oc2ccc(S(C)(=O)=O)cc2)C[C@H](C)N1 [Example 21, (3R,5S)-1-[trans-(1S,2S)-4,6-dichloro-1-(4-methanesulfonylphenoxy)indan-2-yl]-3,5-dimethylpiperazine]
16 |  | 20 to 50% | NC(=O)c1cc(Cl)ccc1O[C@H]1c2cc(Cl)cc(Cl)c2C[C@@H]1N1CCC1 [Example 353, 2-((1S,2S)-2-azetidin-1-yl-4,6-dichloroindan-1-yloxy)-5-chlorobenzamide]

Row | IC50 | inhibition at 10 µM | SMILES
17 | 1 to 10 µM |  | N#Cc1ccc(O[C@@H]2c3ccccc3C[C@H]2N2CCC(CN)C2)c(Cl)c1 (mixture of isomers) [Example 541, 4-[rac-trans-(1,2)-2-(3-aminomethylpyrrolidin-1-yl)indan-1-yloxy]-3-chlorobenzonitrile]
18 |  | 20 to 50% | NS(=O)(=O)c1ccc(O[C@H]2c3ccccc3C[C@@H]2NCc2ccccc2)c(F)c1 (racemic) [Example 459, 4-(2-benzylaminoindan-1-yloxy)-3-fluorobenzenesulfonamide]
19 |  | 20 to 50% | COc1ccc(O[C@H]2c3ccccc3CC[C@@H]2N2CCC[C@@H](N)C2)c(F)c1 (racemic) [Example 42, (R)-1-[rac-trans-(1,2)-1-(2-fluoro-4-methoxyphenoxy)-1,2,3,4-tetrahydronaphthalen-2-yl]piperidin-3-ylamine]
20 | < 1 µM |  | CN(C)S(=O)(=O)c1ccc(OC2c3ccccc3CC2N2CCC[C@@H](N)C2)c(Cl)c1Cl (mixture of isomers) [Example 520, 4-[rac-trans-(1,2)-2-((R)-3-aminopiperidin-1-yl)indan-1-yloxy]-2,3-dichloro-N,N-dimethylbenzenesulfonamide]
21 | 1 to 10 µM |  | N[C@H]1CCCN([C@H]2CCc3ccccc3[C@@H]2Oc2cccc3ccc(Cl)nc23)C1 (racemic) [Example 154, (S)-1-[rac-trans-(1,2)-1-(2-chloroquinolin-8-yloxy)-1,2,3,4-tetrahydronaphthalen-2-yl]piperidin-3-ylamine]
22 | < 1 µM |  | N[C@@H]1CCCN([C@H]2Cc3ccccc3[C@@H]2Oc2ccc(S(N)(=O)=O)cc2)C1 [Example 552, 4-[trans-(1S,2S)-2-((R)-3-aminopiperidin-1-yl)indan-1-yloxy]benzenesulfonamide]
23 | 1 to 10 µM |  | Clc1ccc(O[C@@H]2c3ccccc3C[C@H]2N2C[C@H]3CNC[C@H]3C2)cn1 (racemic) [Example 18, 2-[rac-trans-(1,2)-1-(6-chloropyridin-3-yloxy)indan-2-yl]octahydropyrrolo[3,4-c]pyrrole]
24 | 1 to 10 µM |  | NC1CCN([C@@H]2Cc3ccccc3[C@H]2Oc2ccc3cc[nH]c3c2)C1 (mixture of isomers) [Example 262, 1-[rac-trans-(1,2)-1-(1H-indol-6-yloxy)indan-2-yl]pyrrolidin-3-ylamine]
25 | 1 to 10 µM |  | NCC1CCN([C@@H]2Cc3ccccc3[C@H]2Oc2cccc(C(N)=O)c2)C1 (mixture of isomers) [Example 414, 3-[rac-trans-(1,2)-2-(3-aminomethylpyrrolidin-1-yl)indan-1-yloxy]benzamide]
26 | 1 to 10 µM |  | O=C1CCc2c(cccc2O[C@H]2c3cc(Cl)cc(Cl)c3C[C@@H]2N2CC[C@@H](O)C2)N1 [Example 574, 5-[(1S,2S)-4,6-dichloro-2-((R)-3-hydroxypyrrolidin-1-yl)indan-1-yloxy]-3,4-dihydro-1H-quinolin-2-one]
27 |  | 20 to 50% | CS(=O)(=O)c1ccc(O[C@@H]2c3ccccc3C[C@@H]2NC2CCC2)cc1 (racemic) [Example 706, Cyclobutyl-[rac-cis-(1,2)-1-(4-methanesulfonyl-phenoxy)-indan-2-yl]-amine]
28 |  | 20 to 50% | CS(=O)(=O)c1ccc(O[C@@H]2c3ccccc3C[C@H]2NC2CCCCCC2)cc1 (racemic) [Example 711, Cycloheptyl-[rac-trans-(1,2)-1-(4-methanesulfonyl-phenoxy)-indan-2-yl]-amine]
29 |  | 20 to 50% | CS(=O)(=O)c1ccc(O[C@H]2c3ccccc3C[C@@H]2N2CCCC(NCC(F)(F)F)C2)cc1 (stereo partly drawn) [Example 219, {(R)-1-[trans-(1S,2S)-1-(4-methanesulfonylphenoxy)indan-2-yl]piperidin-3-yl}-(2,2,2-trifluoroethyl)amine]
30 | 1 to 10 µM |  | NC(=O)c1ccc(O[C@@H]2c3ccccc3C[C@H]2N2CCC[C@@H](N)C2)cc1 (racemic) [Example 525, 4-[rac-trans-(1,2)-2-((R)-3-aminopiperidin-1-yl)indan-1-yloxy]benzamide]
31 | < 1 µM |  | CS(=O)(=O)c1ccc(O[C@@H]2c3cc(F)cc(Cl)c3C[C@H]2N2CCC[C@@H](N)C2)cc1 (racemic) [Example 91, (R)-1-[rac-trans-(1,2)-4-chloro-6-fluoro-1-(4-methanesulfonylphenoxy)indan-2-yl]piperidin-3-ylamine]
